# Source: ChEMBL document CHEMBL3885881, “DrugMatrix”
# Legend:
# Rattus norvegicus [1] = organism: Rattus norvegicus; assay: DrugMatrix - Regimen: Daily Repeat; format: toxicity, organism-based, Sprague-Dawley; design: regimen Daily Repeat, gender Male, age 6-8 weeks; conditions: in vivo, po, 1200 mg/kg, route oral GAVAGE, dose level High, vehicle .5 % CMC
# Rattus norvegicus [2] = organism: Rattus norvegicus; format: toxicity, organism-based, Sprague-Dawley; conditions: in vivo, po, 1200 mg/kg, 24 h, route oral GAVAGE, dose level High, time 1 day, vehicle .5 % CMC
# Description: DrugMatrix - Regimen: Single
# [3] = […], tissue Plasma, time 14 day
smiles,measurement,setting,value
Nc1ccc(Cl)cc1[N+](=O)[O-] [4-CHLORO-2-NITROANILINE],URIC ACID,"Rattus norvegicus [1]; 120 h, tissue Plasma, time 5 day",1.5 mg/dL
same,ABSOLUTE BASOPHIL,"Rattus norvegicus [1]; […], tissue Blood, time 14 day",0 CELLS/uL
same,ABSOLUTE EOSINOPHIL,"Rattus norvegicus [1]; […], tissue Blood, time 14 day",305.4 CELLS/uL
same,ABSOLUTE LYMPHOCYTE,"Rattus norvegicus [1]; […], tissue Blood, time 14 day",16745.4 CELLS/uL
same,ABSOLUTE MONOCYTE,"Rattus norvegicus [1]; […], tissue Blood, time 14 day",700 CELLS/uL
same,ABSOLUTE SEGMENTED NEUTROPHIL,"Rattus norvegicus [1]; […], tissue Blood, time 14 day",2009.2 CELLS/uL
same,BASOPHIL,"Rattus norvegicus [1]; […], tissue Blood, time 14 day",0%
same,EOSINOPHIL,"Rattus norvegicus [1]; […], tissue Blood, time 14 day",1.6%
same,ERYTHROCYTE COUNT,"Rattus norvegicus [1]; […], tissue Blood, time 14 day",6.12 x10E6/uL
same,HEMATOCRIT,"Rattus norvegicus [1]; […], tissue Blood, time 14 day",34.88%
same,HEMOGLOBIN,"Rattus norvegicus [1]; […], tissue Blood, time 14 day",12.64 G/DL
same,LEUKOCYTE COUNT,"Rattus norvegicus [1]; […], tissue Blood, time 14 day",19.76 x10E3/uL
same,LYMPHOCYTE,"Rattus norvegicus [1]; […], tissue Blood, time 14 day",84.4%
same,MEAN CORPUSCULAR HEMOGLOBIN,"Rattus norvegicus [1]; […], tissue Blood, time 14 day",20.64 pg
same,MEAN CORPUSCULAR HEMOGLOBIN CONCENTRATION,"Rattus norvegicus [1]; […], tissue Blood, time 14 day",36.24 G/DL
same,MEAN CORPUSCULAR VOLUME,"Rattus norvegicus [1]; […], tissue Blood, time 14 day",56.98 fL
same,MONOCYTE,"Rattus norvegicus [1]; […], tissue Blood, time 14 day",3.4%
same,NEUTROPHIL,"Rattus norvegicus [1]; […], tissue Blood, time 14 day",10.6%
same,NUCLEATED RED BLOOD CELLS,"Rattus norvegicus [1]; […], tissue Blood, time 14 day",0 /100WBC
same,PLATELET COUNT,"Rattus norvegicus [1]; […], tissue Blood, time 14 day",1103.4 x10E3/uL
same,ALANINE AMINOTRANSFERASE,Rattus norvegicus [1]; [3],58.8 u/L
same,ALBUMIN,Rattus norvegicus [1]; [3],4.18 G/DL
same,ALKALINE PHOSPHATASE,Rattus norvegicus [1]; [3],347.4 u/L
same,ASPARTATE AMINOTRANSFERASE,Rattus norvegicus [1]; [3],113.2 u/L
same,BLOOD UREA NITROGEN,Rattus norvegicus [1]; [3],20 mg/dL
same,CARBON DIOXIDE,Rattus norvegicus [1]; [3],28 mmol/L
same,CHLORIDE,Rattus norvegicus [1]; [3],100.8 MEQ/L
same,CHOLESTEROL,Rattus norvegicus [1]; [3],80.8 mg/dL
same,CREATININE,Rattus norvegicus [1]; [3],0.27 mg/dL
same,GLUCOSE,Rattus norvegicus [1]; [3],164.4 mg/dL
same,LACTATE DEHYDROGENASE,Rattus norvegicus [1]; [3],192 u/L
same,LIPASE,Rattus norvegicus [1]; [3],10.8 u/L
same,PHOSPHORUS,Rattus norvegicus [1]; [3],12.48 mg/dL
same,POTASSIUM,Rattus norvegicus [1]; [3],6.05 MEQ/L
same,SODIUM,Rattus norvegicus [1]; [3],146.34 MEQ/L
same,TOTAL BILIRUBIN,Rattus norvegicus [1]; [3],0.3 mg/dL
same,TOTAL PROTEIN,Rattus norvegicus [1]; [3],6.3 G/DL
same,URIC ACID,Rattus norvegicus [1]; [3],1.32 mg/dL
same,ABSOLUTE EOSINOPHIL,Rattus norvegicus [2]; tissue Blood,51.67 CELLS/uL
same,ABSOLUTE LYMPHOCYTE,Rattus norvegicus [2]; tissue Blood,11963.33 CELLS/uL
same,ABSOLUTE MONOCYTE,Rattus norvegicus [2]; tissue Blood,476.67 CELLS/uL
same,ABSOLUTE SEGMENTED NEUTROPHIL,Rattus norvegicus [2]; tissue Blood,1508.33 CELLS/uL
same,BASOPHIL,Rattus norvegicus [2]; tissue Blood,0%
same,EOSINOPHIL,Rattus norvegicus [2]; tissue Blood,0.33%
same,ERYTHROCYTE COUNT,Rattus norvegicus [2]; tissue Blood,5.85 x10E6/uL
same,HEMATOCRIT,Rattus norvegicus [2]; tissue Blood,35.7%
same,HEMOGLOBIN,Rattus norvegicus [2]; tissue Blood,12.97 G/DL
same,LEUKOCYTE COUNT,Rattus norvegicus [2]; tissue Blood,14 x10E3/uL
same,LYMPHOCYTE,Rattus norvegicus [2]; tissue Blood,85.67%
same,MEAN CORPUSCULAR HEMOGLOBIN,Rattus norvegicus [2]; tissue Blood,22.17 pg
same,MEAN CORPUSCULAR HEMOGLOBIN CONCENTRATION,Rattus norvegicus [2]; tissue Blood,36.3 G/DL
same,MEAN CORPUSCULAR VOLUME,Rattus norvegicus [2]; tissue Blood,61.07 fL
same,MONOCYTE,Rattus norvegicus [2]; tissue Blood,3.33%
same,NEUTROPHIL,Rattus norvegicus [2]; tissue Blood,10.67%
same,NUCLEATED RED BLOOD CELLS,Rattus norvegicus [2]; tissue Blood,0 /100WBC
same,PLATELET COUNT,Rattus norvegicus [2]; tissue Blood,1137 x10E3/uL
same,ALANINE AMINOTRANSFERASE,Rattus norvegicus [2]; tissue Plasma,71.67 u/L
same,ALBUMIN,Rattus norvegicus [2]; tissue Plasma,4.2 G/DL
same,ALKALINE PHOSPHATASE,Rattus norvegicus [2]; tissue Plasma,484 u/L
same,ASPARTATE AMINOTRANSFERASE,Rattus norvegicus [2]; tissue Plasma,114 u/L
same,BLOOD UREA NITROGEN,Rattus norvegicus [2]; tissue Plasma,15 mg/dL
same,CARBON DIOXIDE,Rattus norvegicus [2]; tissue Plasma,23.33 mmol/L
same,CHLORIDE,Rattus norvegicus [2]; tissue Plasma,101.33 MEQ/L
same,CHOLESTEROL,Rattus norvegicus [2]; tissue Plasma,86.33 mg/dL
same,CREATININE,Rattus norvegicus [2]; tissue Plasma,0.27 mg/dL
same,GLUCOSE,Rattus norvegicus [2]; tissue Plasma,219 mg/dL
same,LACTATE DEHYDROGENASE,Rattus norvegicus [2]; tissue Plasma,411.33 u/L
same,LIPASE,Rattus norvegicus [2]; tissue Plasma,10 u/L
same,PHOSPHORUS,Rattus norvegicus [2]; tissue Plasma,14.33 mg/dL
same,POTASSIUM,Rattus norvegicus [2]; tissue Plasma,6.09 MEQ/L
same,SODIUM,Rattus norvegicus [2]; tissue Plasma,142.83 MEQ/L
same,TOTAL BILIRUBIN,Rattus norvegicus [2]; tissue Plasma,0.2 mg/dL
same,TOTAL PROTEIN,Rattus norvegicus [2]; tissue Plasma,6.2 G/DL
same,URIC ACID,Rattus norvegicus [2]; tissue Plasma,2.73 mg/dL
